Source: PMC9977398, “Next-generation membrane-active glycopeptide antibiotics that also inhibit bacterial cell division” (Chemical Science, 2023)
In brackets after ≈: the same amount, converted by molar mass. Like-named read-outs stand apart in the source and are kept apart here.

Legend:
[1] = system: PA R590 (MDR strain of P. aeruginosa); test: MIC determination, micro-dilution broth; assay type: cell-based
Protocol: (§1) The increase in the carbon content of substituted moieties from six (1) to seven (2 and 3) to ten (5) to twelve (4), increased activity. […]
(§2) Test compound was assayed in a micro -dilution broth format as per the CLSI guideline. The bacterial freeze dried stock samples were stored at -80 °C. About 5 μL of these stocks were added to 3 mL of the respective broth and the culture was grown for 6 h at 37°C with prior to the experiments. This 6 h grown culture was diluted to give effective cell concentration of 10 5 CFU/mL which was then used for determining MIC. Compounds were serially diluted 2 -fold, in sterile millipore water and 50 μL of these serial dilutions were added to the wells of 96 well plate followed by the addition of about 150 μL of bacterial solution. The plates were then incubated for 18-24 h at 37 °C. The O.D. value at 600 nm was recorded using TECAN (Infinite series, M200 pro) Plate Reade r. Each concentration had triplicate values and the whole experiment was done at least twice and the MIC value was determined by taking the average of triplicate O. D. values for each concentration and plotting it against concentration. The data was then subjected to sigmoidal fitting. From the curve the MIC value was determined, as the point where the O. D. was similar to that of control having no bacteria.

[2] = system: AB 1425 (A. baumannii MTCC 1425); test: MIC determination, micro-dilution broth; assay type: cell-based
Protocol: as §1, §2

AB R674 (A. baumannii) = test: MIC determination, micro-dilution broth; assay type: cell-based
Protocol: as §1, §2

[3] = system: MRSA, methicillin-resistant S. aureus (ATCC 33591); test: MIC determination, micro-dilution broth; assay type: cell-based; details: Staphylococcus aureus, read-out: Minimum inhibitory concentration, MRSA
Protocol: as §1, §2

MRSA = test: Cytoplasmic membrane depolarization assay, DiSC3(5); assay type: cell-based, S. aureus; details: for time to membrane depolarisation post-treatment: exponentially growing MRSA, 10 μM; for time to dissipation of membrane potential post-treatment: stationary phase cells of MRSA, 20 μM
From the text: The membrane disruption properties of both VanQbiph (4) and VanQAmC10 (8) were studied to correlate the extent of membrane perturbation and bactericidal activity against both exponentially growing and non-growing bacterial cells. Their ability to depolarize the membrane was monitored using the fluorescent probe DiSC3(5) (3,3′-dipropylthiadicarbocyanine iodide). DiSC3(5) is sensitive to the membrane potential and as it accumulates in the membrane, the fluorescence intensity decreases due to self-quenching. Upon dissipation of membrane potential, an increase in fluorescence is observed due to DiSC3(5) being dispersed in the solution. Against B. subtilis and MRSA, both the compounds VanQbiph (4) and VanQAmC10 (8) depolarised the membrane within 2 minutes post-treatment at 10 μM (Fig. 2A and B). The depolarization occurred in a concentration-dependent manner (Fig. S2A ^†). […] Against stationary phase cells of MRSA also, rapid dissipation of membrane potential was observed within 2 minutes post-treatment with both VanQbiph (4) and VanQAmC10 (8) (Fig. 2C). […]
For assessing depolarisation against stationary phase cells of MRSA ATCC 33591, cells were grown to the stationary phase for 16 h. The culture was then diluted to an OD600 of 0.2 and the depolarisation assays was performed as described. The experiments were performed three times independently in duplicates and the graph is representative of the results from all experiments.
Cytoplasmic membrane depolarization assay5
Mid log phase MRSA were harvested (3500 rpm, 5 min), washed in 5 mM glucose and 5 mM HEPES buffer (pH 7.2) in 1:1 ratio and resuspended in 5 mM HEPES buffer, 5 mM glucose and 100 mM KCl solution in 1:1:1 ratio. Then 2 μM of 3, 3′-Dipropylthiadicarbocyanine iodide (DiSC3(5)) was added to bacterial suspension and pre-incubated for 45 min. The fluorescence was monitored at excitation wavelength of 622 nm and emission wavelength of 670 nm. Then 20 μL of test compound and vancomycin were added to black well plates containing bacterial suspension and DiSC3(5) after 2-4 min of fluorescence measurement. As a measure of membrane depolarization fluorescence was monitor for another 35 min. For assessing membrane […] against stationary phase cells of MRSA ATCC 33591, cells were grown to the stationary phase for 16 h. The culture was then diluted to an OD600 of 0.2 and the depolarisation assays was performed as described. The images are representative of results from three independent experiments done in triplicates […]
Glass cover slips 24 h post -treatment with the test compounds at the mentioned con centrations, […]

[4] = Pseudomonas aeruginosa, read-out: Minimum inhibitory concentration, PA R590
[5] = Acinetobacter baumannii, MTCC1425, read-out: Minimum inhibitory concentration, AB 1425
[6] = Acinetobacter baumannii, read-out: Minimum inhibitory concentration, AB R674

| SMILES | MIC [1, 4] | MIC [2, 5] | MIC (AB R674 (A. baumannii); [6]) | MIC [3] | time to membrane depolarisation post-treatment (MRSA) | time to dissipation of membrane potential post-treatment (MRSA) | effect on membrane potential (MRSA) | MIC ([1]; Pseudomonas aeruginosa; read-out: Minimum inhibitory concentration, PA R590) | MIC ([2]; Acinetobacter baumannii, MTCC1425; read-out: Minimum inhibitory concentration, AB 1425) | MIC (AB R674 (A. baumannii); Acinetobacter baumannii; read-out: Minimum inhibitory concentration, AB R674) | MIC ([3]; MRSA ATCC 33591) |
| --- | --- | --- | --- | --- | --- | --- | --- | --- | --- | --- | --- |
| CCCCCCCCCCNC(=O)C[N+](C)(C)CCCNC(=O)C1NC(=O)C2NC(=O)C(NC(=O)C3NC(=O)C(CC(N)=O)NC(=O)C(NC(=O)C(CC(C)C)NC)C(O)c4ccc(c(Cl)c4)Oc4cc3cc(c4OC3OC(CO)C(O)C(O)C3OC3CC(C)(N)C(O)C(C)O3)Oc3ccc(cc3Cl)C2O)c2ccc(O)c(c2)-c2c(O)cc(O)cc21 (centres unmarked) [VanQAmC10 (8)] | 3.1 µM | 6.3 µM | 10 µM | 0.4 µM | ≤ 2 min | ≤ 2 min |  |  |  |  |  |
| CN[C@H](CC(C)C)C(=O)N[C@H]1C(=O)N[C@@H](CC(N)=O)C(=O)N[C@H]2C(=O)N[C@H]3C(=O)N[C@H](C(=O)N[C@H](C(=O)O)c4cc(O)cc(O)c4-c4cc3ccc4O)[C@H](O)c3ccc(c(Cl)c3)Oc3cc2cc(c3O[C@@H]2O[C@H](CO)[C@@H](O)[C@H](O)[C@H]2O[C@H]2C[C@](C)(N)[C@H](O)[C@H](C)O2)Oc2ccc(cc2Cl)[C@H]1O [Vancomycin, reference compound] | 100 µM (≈ 145 µg/mL) | 100 µM (≈ 145 µg/mL) | 100 µM (≈ 145 µg/mL) | 0.6 µM (≈ 0.87 µg/mL) |  |  | did not affect the membrane potential |  |  |  |  |
| CNC(CC(C)C)C(=O)NC1C(=O)NC(CC(N)=O)C(=O)NC2C(=O)NC3C(=O)NC(C(=O)NC(C(=O)NCCC[N+](C)(C)Cc4ccc(-c5ccccc5)cc4)c4cc(O)cc(O)c4-c4cc3ccc4O)C(O)c3ccc(c(Cl)c3)Oc3cc2cc(c3OC2OC(CO)C(O)C(O)C2OC2CC(C)(N)C(O)C(C)O2)Oc2ccc(cc2Cl)C1O (centres unmarked) [VanQbiph (4)] |  |  |  |  | ≤ 2 min | ≤ 2 min |  | > 30 µM | 15.7 µM | 24.5 µM | 0.5 µM |
